Reference: patent publication US11179415B1 (priority 2020, dated 2021)
Like-named read-outs stand apart in the source and are kept apart here.

Tests used:
common cold = assay: inventor's self-use of CLO2 to prevent the common cold; format: in vivo, human; conditions: 5 ppm CLO2 nasal drops only, several drops per nostril 2 times per day, 3 days from prodromal period; one person
SARS CoV-2 = conditions: in vivo
Coronavirus SARS CoV-2 = conditions: Fact Sheet, National Agricultural Biosecurity Center, Kansas State University; cited from earlier work
human Coronavirus = conditions: BASF Aseptrol Label, EPA Registration Number 70060-19; cited from earlier work
[1] = man; daily ingestion of 500 ml CLO2 at 5 ppm; cited from earlier work
[2] = rat; in drinking water up to several months; doses as high as 1000 mg/liter (1000 ppm or 0.1%); cited from earlier work
[3] = mouse; in drinking water up to several months; doses as high as 1000 mg/liter (1000 ppm or 0.1%); cited from earlier work
[4] = chicken; in drinking water up to several months; doses as high as 1000 mg/liter (1000 ppm or 0.1%); cited from earlier work
[5] = OSHA, cited from earlier work

Structure (SMILES)	development of a common cold (common cold)	lung irritation after inhalation of aerosol fog (SARS CoV-2)	symptoms after contracting SARS CoV-2 (SARS CoV-2)	virucidal activity against SARS CoV-2 (Coronavirus SARS CoV-2)	efficacy against human Coronavirus (human Coronavirus)	tolerability of daily ingestion [1]	methemoglobin concentrations [2]	methemoglobin concentrations [3]	methemoglobin concentrations [4]	concentration safe for an 8-hour exposure ([5]; 8-hour exposure)	concentration safe for short-time exposure limit (STEL) ([5]; STEL of 15 minutes)
[O][Cl+][O-] [CLO2, chlorine dioxide]	a cold never developed	no resulting lung irritation	only little to slight symptoms	kills the Coronavirus SARS CoV-2	effective against human Coronavirus	safely tolerated	no significant increases	no significant increases	no significant increases	0.1 ppm	0.3 ppm
[O-][Cl+2]([O-])O [CLO3]	–	–	–	–	–	–	no significant increases	no significant increases	no significant increases	–	–
